Experimental data taken from patent publication US20140155580A1, “TRANSGENIC AVES PRODUCING HUMAN POLYCLONAL ANTIBODIES” (Synageva BioPharma Corp., priority 2003, published 2014).

Tested on: chicken embryonic stem cells
Assay: Titration kill curve: cES cells in culture exposed to puromycin or neomycin
Format: cell-based
Parameters: key to Morphology of cES cells: ES: ES cells are present.; diff: ES cells are differentiated.; gone: no morphologically recognizable cells are present
Procedure: In a preferred embodiment, the concentration of puromycin required for selecting transfected cells is calculated as a titration kill curve. Titration kill curves for chicken embryonic stem cells are established by exposing cells in culture to puromycin concentrations varying from 0.0 to 1.0 μg/ml for 10 days (Table 7) and neomycin concentrations varying from 0.0 to 200 μg/ml (Table 8). The medium is changed every 2 days and fresh puromycin or neomycin is added. […] Puromycin concentrations of 0.3-1.0 μg/ml are used for selection of the transfected cultures. Neomycin concentrations over 40 μg/ml eliminated all cES cells within 7 days (Table 8).

neomycin
Morphology of cES cells (neomycin 10 μg/ml, day 1 under selection): ES | Morphology of cES cells (neomycin 10 μg/ml, day 2 under selection): ES | Morphology of cES cells (neomycin 10 μg/ml, day 3 under selection): ES | Morphology of cES cells (neomycin 10 μg/ml, day 4 under selection): ES | Morphology of cES cells (neomycin 10 μg/ml, day 5 under selection): ES | Morphology of cES cells (neomycin 10 μg/ml, day 6 under selection): ES | Morphology of cES cells (neomycin 10 μg/ml, day 7 under selection): ES | Morphology of cES cells (neomycin 10 μg/ml, day 8 under selection): ES | Morphology of cES cells (neomycin 10 μg/ml, day 9 under selection): ES | Morphology of cES cells (neomycin 10 μg/ml, day 10 under selection): ES | Morphology of cES cells (neomycin 20 μg/ml, day 1 under selection): ES | Morphology of cES cells (neomycin 20 μg/ml, day 2 under selection): ES | Morphology of cES cells (neomycin 20 μg/ml, day 3 under selection): ES | Morphology of cES cells (neomycin 20 μg/ml, day 4 under selection): ES | Morphology of cES cells (neomycin 20 μg/ml, day 5 under selection): ES | Morphology of cES cells (neomycin 20 μg/ml, day 6 under selection): ES | Morphology of cES cells (neomycin 20 μg/ml, day 7 under selection): ES | Morphology of cES cells (neomycin 20 μg/ml, day 8 under selection): ES | Morphology of cES cells (neomycin 20 μg/ml, day 9 under selection): ES | Morphology of cES cells (neomycin 20 μg/ml, day 10 under selection): ES | Morphology of cES cells (neomycin 30 μg/ml, day 1 under selection): ES | Morphology of cES cells (neomycin 30 μg/ml, day 2 under selection): ES | Morphology of cES cells (neomycin 30 μg/ml, day 3 under selection): ES | Morphology of cES cells (neomycin 30 μg/ml, day 4 under selection): ES | Morphology of cES cells (neomycin 30 μg/ml, day 5 under selection): ES | Morphology of cES cells (neomycin 30 μg/ml, day 6 under selection): ES | Morphology of cES cells (neomycin 30 μg/ml, day 9 under selection): Diff | Morphology of cES cells (neomycin 40 μg/ml, day 1 under selection): ES | Morphology of cES cells (neomycin 40 μg/ml, day 2 under selection): ES | Morphology of cES cells (neomycin 40 μg/ml, day 3 under selection): ES | Morphology of cES cells (neomycin 40 μg/ml, day 4 under selection): ES | Morphology of cES cells (neomycin 40 μg/ml, day 7 under selection): dead | Morphology of cES cells (neomycin 40 μg/ml, day 8 under selection): gone | Morphology of cES cells (neomycin 40 μg/ml, day 9 under selection): gone | Morphology of cES cells (neomycin 40 μg/ml, day 10 under selection): gone | Morphology of cES cells (neomycin 50 μg/ml, day 1 under selection): ES | Morphology of cES cells (neomycin 50 μg/ml, day 2 under selection): ES | Morphology of cES cells (neomycin 50 μg/ml, day 3 under selection): ES | Morphology of cES cells (neomycin 50 μg/ml, day 8 under selection): gone | Morphology of cES cells (neomycin 50 μg/ml, day 9 under selection): gone | Morphology of cES cells (neomycin 50 μg/ml, day 10 under selection): gone | Morphology of cES cells (neomycin 60 μg/ml, day 1 under selection): ES | Morphology of cES cells (neomycin 60 μg/ml, day 2 under selection): ES | Morphology of cES cells (neomycin 60 μg/ml, day 3 under selection): ES | Morphology of cES cells (neomycin 60 μg/ml, day 4 under selection): gone | Morphology of cES cells (neomycin 60 μg/ml, day 5 under selection): gone | Morphology of cES cells (neomycin 60 μg/ml, day 6 under selection): gone | Morphology of cES cells (neomycin 60 μg/ml, day 7 under selection): gone | Morphology of cES cells (neomycin 60 μg/ml, day 8 under selection): gone | Morphology of cES cells (neomycin 60 μg/ml, day 9 under selection): gone | Morphology of cES cells (neomycin 60 μg/ml, day 10 under selection): gone | Morphology of cES cells (neomycin 100 μg/ml, day 2 under selection): Diff | Morphology of cES cells (neomycin 100 μg/ml, day 3 under selection): dead | Morphology of cES cells (neomycin 100 μg/ml, day 4 under selection): gone | Morphology of cES cells (neomycin 100 μg/ml, day 5 under selection): gone | Morphology of cES cells (neomycin 100 μg/ml, day 6 under selection): gone | Morphology of cES cells (neomycin 100 μg/ml, day 7 under selection): gone | Morphology of cES cells (neomycin 100 μg/ml, day 8 under selection): gone | Morphology of cES cells (neomycin 100 μg/ml, day 9 under selection): gone | Morphology of cES cells (neomycin 100 μg/ml, day 10 under selection): gone | Morphology of cES cells (neomycin 150 μg/ml, day 1 under selection): dead | Morphology of cES cells (neomycin 150 μg/ml, day 2 under selection): dead | Morphology of cES cells (neomycin 150 μg/ml, day 3 under selection): gone | Morphology of cES cells (neomycin 150 μg/ml, day 4 under selection): gone | Morphology of cES cells (neomycin 150 μg/ml, day 5 under selection): gone | Morphology of cES cells (neomycin 150 μg/ml, day 6 under selection): gone | Morphology of cES cells (neomycin 150 μg/ml, day 7 under selection): gone | Morphology of cES cells (neomycin 150 μg/ml, day 8 under selection): gone | Morphology of cES cells (neomycin 150 μg/ml, day 9 under selection): gone | Morphology of cES cells (neomycin 150 μg/ml, day 10 under selection): gone | Morphology of cES cells (neomycin 200 μg/ml, day 1 under selection): dead | Morphology of cES cells (neomycin 200 μg/ml, day 2 under selection): gone | Morphology of cES cells (neomycin 200 μg/ml, day 3 under selection): gone | Morphology of cES cells (neomycin 200 μg/ml, day 4 under selection): gone | Morphology of cES cells (neomycin 200 μg/ml, day 5 under selection): gone | Morphology of cES cells (neomycin 200 μg/ml, day 6 under selection): gone | Morphology of cES cells (neomycin 200 μg/ml, day 7 under selection): gone | Morphology of cES cells (neomycin 200 μg/ml, day 8 under selection): gone | Morphology of cES cells (neomycin 200 μg/ml, day 9 under selection): gone | Morphology of cES cells (neomycin 200 μg/ml, day 10 under selection): gone | Time in which all cES cells were eliminated (neomycin concentrations over 40 μg/ml): ≤ 7 days
